Source: US8722910B2, “Diyne compositions” (Evolva AG, priority 2009, dated 2014)
Values after ≈ are worked out from the molar mass of the structure shown. Like-named read-outs stand apart in the source and are kept apart here.

Legend:
[1] = tested on: C. parapsilosis ATCC-22019; assay: MIC versus reference Candida strains (broth micro dilution); set-up: MICs (100% inhibition): unit not given beside the values; conditions: for MIC: Lodderomyces parapsilosis
Plasmopara viticola = format: cell-based; set-up: dose or concentration left out as unconfirmed; conditions: Plasmopara viticola (spore germination)
C. glabrata ATCC-90030 = assay: MIC versus reference Candida strains (broth micro dilution); set-up: MICs (100% inhibition): unit not given beside the values; conditions: for MIC: Nakaseomyces glabratus
M. grisea = format: cell-based; conditions: sterile water with different concentrations of test compound
C. krusei ATCC-6258 = assay: MIC versus reference Candida strains (broth micro dilution); set-up: MICs (100% inhibition): unit not given beside the values; conditions: for MIC: Pichia kudriavzevii
C. albicans ATCC-24433 = assay: as above; set-up: MICs (100% inhibition): unit not given beside the values; conditions: for MIC: Candida albicans
Magnaporthe grisea = assay: microbe, parasite or virus in culture; format: cell-based; conditions: Pyricularia oryzae, read-out: % Mycelial growth Inhibition
[2] = tested on: C. parapsilosis ATCC-90018; assay: MIC versus reference Candida strains (broth micro dilution); set-up: MICs (100% inhibition): unit not given beside the values; conditions: for MIC: Lodderomyces parapsilosis
C. albicans SC5314 = assay: as above; format: cell-based
Puccinia arachidis = assay: Leaf disk assay; conditions: Puccinia arachidis (leaf disc assay)
C. albicans ATCC-90028 = assay: MIC versus reference Candida strains (broth micro dilution); set-up: MICs (100% inhibition): unit not given beside the values; conditions: for MIC: Candida albicans
[3] = tested on: Colletotrichum gloeosporioides (chili strain); assay: In vitro mycelial growth inhibition, poisoned plate; format: cell-based; conditions: 5 μg/ml
Procedure: (§1) Growth of fungi was carried out in potato dextrose agar media at […], and test compound was added at different concentrations and at pH 5.8 for compound X″ and at pH 7.0 for its potassium salt, compound XII″, with a water control instead of test compound. Radial mycelial growth was measured at regular intervals 4, 8, 12 and 16 days for slow growing fungi and at 3, 6 and 8 days for fast growing fungi. When the mycelia reached the end of the plate, measurements were stopped. Morphological changes in the hyphal growth and sporulation patterns were also observed. For dose response studies a range of concentrations and a range of inhibition obtained falling below and above 50% inhibition (see Table 23 below)

Botrytis cinerea [4] = assay: as above; format: cell-based; conditions: 2.5 μg/ml
Procedure: as §1

[5] = tested on: Colletotrichum gloeosporioides (mango strain); assay: as above; format: cell-based; conditions: 5 μg/ml
Procedure: as §1

Alternaria solani = assay: as above; format: cell-based; conditions: 50 μg/ml
Procedure: as §1

C. tropicalis ATCC-750 = assay: MIC versus reference Candida strains (broth micro dilution); set-up: MICs (100% inhibition): unit not given beside the values; conditions: for MIC: Candida tropicalis
[6] = tested on: Colletotrichum gloeosporioides; assay: Paper disc in the path of pathogen growth, growth and sporulation; format: cell-based; conditions: compound on sterile paper disc
Botrytis cinerea [7] = assay: Changes in the hyphal tips; format: cell-based; conditions: compound in the media, 2 μg/ml
Text: Apical dominance is an important criterion for growth of hyphae of fungi: at the apical tip of the mycelia branching is not seen near the growing tip. Apical dominance is maintained but branching of hyphae will start at sub-apical point, a distance away from the growth point. Under abnormal conditions of stress, apical dominance is lost, extensive branching begins, resulting in the growth of the fungal mycelia being arrested. When the test compound is incorporated in the media in which the fungi is present, hyphal tip splitting and branching is seen with loss of apical dominance and polarity. […] Hyphae from the inoculated disc start growing against gravity and are thicker than the normal hyphae seen in the control (the two upper pictures).

Uncinula necator = assay: Leaf disk assay; conditions: Uncinula necator (leaf disc assay)
Procedure: Leaf disk assay was carried out by the cavity well plate method for powdery mildew disease of grapes. Leaf disks of 14 mm in diameter were cut with a cork borer from the healthy leaves (second and third from the tip) of grapevine plants, and were dipped in 100 μl of each test compound at different concentrations for two minutes, as in treatment details shown below. The control leaf disks were dipped only in sterile water for two minutes. The compound treated leaf disks were placed, abaxial side up, in TC-24 well plates containing water agar medium. The disks were inoculated by placing 20 μl of inoculum (1-5×10^6 spores/ml) on the centre of the disk. After inoculation, the cavity well plates were incubated at 20° C. for 10 days. After incubation, the powdery mildew lesions on the leaf disks were rated to 0-9 scale, in which, 0 was no visible symptoms and 9 represented more than 50% leaf area with mildew growth/lesion. Percent disease index (PDI) was calculated as follows: […]
After the observation, the conidia were washed from the leaf disks in known volume of a fixative solution of ethanol-formaldehyde-acetic acid (90:5:5, v/v/v) and counted with a hemocytometer.

Fusarium oxysporum = assay: Mycelial growth inhibition, disc diffusion assay; format: cell-based
Fusarium verticillioides = assay: In vitro mycelial growth inhibition, poisoned plate; format: cell-based; conditions: 50 μg/ml
Sclerotium rolfsii = assay: as above; format: cell-based; conditions: Agroathelia rolfsii, 50 μg/ml
Rhizoctonia solani = assay: as above; format: cell-based; conditions: 50 μg/ml
Macrophomina phaseolina = assay: as above; format: cell-based; conditions: 100 μg/ml
[8] = tested on: Botryodiplodia theobromae; assay: as above; format: cell-based; conditions: Lasiodiplodia theobromae, 50 μg/ml
Pythium aphanidermatum = assay: as above; format: cell-based; conditions: 50 μg/ml

O=C([O-])CCCCCCCCCC#CC#Cc1ccco1.[K+] [Compound XII″, Potassium 14-(furan-2-yl)tetradeca-11,13-diynoate]
MIC ([1]; ATCC22019): > 10.2 µg/mL
Reduction in % disease index/germination (Plasmopara viticola): 93%
MIC (C. glabrata ATCC-90030; ATCC90030): 0.32 µg/mL
spores that did not germinate (M. grisea): more than 50%
MIC (C. krusei ATCC-6258; ATCC6258): 0.64 µg/mL
MIC (C. albicans ATCC-24433; ATCC24433): 0.01 µg/mL
inhibition at 5 µg/mL (Magnaporthe grisea): 27%
MIC ([2]; ATCC90018): 5.12 µg/mL
MIC (C. albicans SC5314): 0.01 µg/mL
Reduction in % disease index/germination (Puccinia arachidis; 10 μg/ml): 67%
Reduction in % disease index/germination (Puccinia arachidis; 20 μg/ml): 75%
MIC (C. albicans ATCC-90028; ATCC90028): 0.01 µg/mL
inhibition at 5 µg/mL [3]: 10%
inhibition at 2.5 µg/mL (Botrytis cinerea [4]): 76%
inhibition at 5 µg/mL [5]: 28%
inhibition at 50 µg/mL (Alternaria solani): 42%
MIC (C. tropicalis ATCC-750; ATCC750): 0.01 µg/mL
growth of the mycelia [6]: the growth of the mycelia is arrested
sporulation around the loaded disc [6]: no sporulation observed
toxicity to the fungus, hyphal changes (Botrytis cinerea [7]): toxic to the fungus Botrytis cinerea
Reduction in % disease index/germination (Uncinula necator; 10 μg/ml): 65%
Reduction in % disease index/germination (Uncinula necator; 20 μg/ml): 100%

O=C(O)CCCCCCCCCC#CC#Cc1ccco1 [Compound X″]
MIC breakpoints ([1]; C. parapsilosis ATCC 22019, CLSI M27-A3, growth inhibition of 100%, 35° C., 24 hrs): >10240 ng/mL
MICs (100% inhibition) ([1]; C. parapsilosis ATCC 22019, NCCLS M27A, 35° C., 24 hrs): >10240
MIC ([1]; ATCC22019, read-out: minimal inhibitory concentrations): > 10.2 µg/mL
% Mycelial Growth Inhibition (Fusarium oxysporum): No inhibition
MIC breakpoints (C. glabrata ATCC-90030; C. glabrata ATCC 90030, CLSI M27-A3, growth inhibition of 100%, 35° C., 24 hrs): 2560 ng/mL (≈ 8.94 µM)
MICs (100% inhibition) (C. glabrata ATCC-90030; C. glabrata ATCC 90030, NCCLS M27A, 35° C., 24 hrs): 2560
MIC (C. glabrata ATCC-90030; ATCC90030, read-out: minimal inhibitory concentrations): 2.56 µg/mL (≈ 8.94 µM)
inhibition at 50 µg/mL (Fusarium verticillioides): 14%
MIC breakpoints (C. krusei ATCC-6258; C. krusei ATCC 6258, CLSI M27-A3, growth inhibition of 100%, 35° C., 24 hrs): 1280 ng/mL (≈ 4.47 µM)
MICs (100% inhibition) (C. krusei ATCC-6258; C. krusei ATCC 6258, NCCLS M27A, 35° C., 24 hrs): 1280
MIC (C. krusei ATCC-6258; ATCC6258, read-out: minimal inhibitory concentrations): 1.28 µg/mL (≈ 4.47 µM)
inhibition at 50 µg/mL (Sclerotium rolfsii): 5%
MIC breakpoints (C. albicans ATCC-24433; C. albicans ATCC 24433, CLSI M27-A3, growth inhibition of 100%, 35° C., 24 hrs): 20 ng/mL (≈ 0.0698 µM)
MICs (100% inhibition) (C. albicans ATCC-24433; C. albicans ATCC 24433, NCCLS M27A, 35° C., 24 hrs): 20
MIC (C. albicans ATCC-24433; ATCC24433, read-out: minimal inhibitory concentrations): 0.02 µg/mL (≈ 0.0698 µM)
MIC breakpoints ([2]; C. parapsilosis ATCC 90018, CLSI M27-A3, growth inhibition of 100%, 35° C., 24 hrs): >10240 ng/mL
MICs (100% inhibition) ([2]; C. parapsilosis ATCC 90018, NCCLS M27A, 35° C., 24 hrs): >10240
MIC ([2]; ATCC90018, read-out: minimal inhibitory concentrations): > 10.2 µg/mL
inhibition at 50 µg/mL (Rhizoctonia solani): 19%
inhibition at 100 µg/mL (Macrophomina phaseolina): 15%
inhibition at 50 µg/mL [8]: 15%
% Mycelial Growth Inhibition (Pythium aphanidermatum): No inhibition
MIC breakpoints (C. albicans ATCC-90028; C. albicans ATCC 90028, CLSI M27-A3, growth inhibition of 100%, 35° C., 24 hrs): 20 ng/mL (≈ 0.0698 µM)
MICs (100% inhibition) (C. albicans ATCC-90028; C. albicans ATCC 90028, NCCLS M27A, 35° C., 24 hrs): 20
MIC (C. albicans ATCC-90028; ATCC90028, read-out: minimal inhibitory concentrations): 0.02 µg/mL (≈ 0.0698 µM)
MIC breakpoints (C. tropicalis ATCC-750; C. tropicalis ATCC 750, CLSI M27-A3, growth inhibition of 100%, 35° C., 24 hrs): 80 ng/mL (≈ 0.279 µM)
MICs (100% inhibition) (C. tropicalis ATCC-750; C. tropicalis ATCC 750, NCCLS M27A, 35° C., 24 hrs): 80
MIC (C. tropicalis ATCC-750; ATCC750, read-out: minimal inhibitory concentrations): 0.08 µg/mL (≈ 0.279 µM)
